Data taken from article PMC6930863 (CPT: Pharmacometrics & Systems Pharmacology, 2019).
Values joined by “and” are separate entries in the source; they are usually repeats but may differ in a detail not shown here. Equal values may be shown once. Read-outs that look alike come from different tables or passages of the source. Each block holds one molecule with its values, some of them ahead of it.

Legend:
[1] = rat
[2] = human; cited from earlier work
[3] = cited from earlier work
[4] = test system: proliferative crypt cells, including stem cells and proliferative progenitor cells; format: in vivo, Sprague-Dawley rats; settings: rat, on proliferative crypt cells, fitted to plasma citrulline
[5] = test system: proliferative cells (the stem cells and proliferative progenitors); experiment: Translated and calibrated human system toxicology model; set-up: species or system humans; settings: fitted to published villus area data after chemotherapy, value (% RSE)
[6] = rat, fixed to literature value; cited from earlier work
[7] = human; cited from earlier work; remark: listed apart in the source

Vmax, maximum rate of conversion from irinotecan to SN-38 ([1]; i.p. irinotecan, population TK model estimate): 20.6 nmol/h/kg
Dmaxp, coefficient for maximum irinotecan loss during absorption ([1]; i.p., population TK model estimate): 430 mg/kg
ka, absorption rate constant of irinotecan ([1]; i.p., % RSE NA): 10 h⁻¹
SMILES: CCc1c2c(nc3ccc(OC(=O)N4CCC(N5CCCCC5)CC4)cc13)-c1cc3c(c(=O)n1C2)COC(=O)[C@]3(O)CC [Irinotecan]
k12, rate constant from central to peripheral 1 of irinotecan [2]: 57.8 h⁻¹
k21, rate constant from peripheral 1 to central of irinotecan [2]: 2.58 h⁻¹
k31, rate constant from peripheral 2 to central of irinotecan [2]: 0.0812 h⁻¹
occurrence of ≥grade 3 diarrhea in the BI3W schedule compared with Q3W ([3]; 175 mg/m^2 days 1 and 10 every 3 weeks vs 350 mg/m^2 once every 3 weeks): significantly higher
efficacy in both dosing regimens (Q3W and BI3W) ([3]; 350 mg/m^2 Q3W vs 175 mg/m^2 BI3W): similar

CLm, clearance of SN-38 ([1]; after i.p. irinotecan): 7.73 mL/min/kg
Vm, volume of SN-38 ([1]; after i.p. irinotecan, % RSE NA): 0.01 L/kg
SMILES: CCc1c2c(nc3ccc(O)cc13)-c1cc3c(c(=O)n1C2)COC(=O)[C@]3(O)CC [SN‐38, 7‐ethyl‐10‐hydroxy‐camptothecin]
kkill, cytotoxic rate by SN-38 [4]: 146 M⁻¹ s⁻¹
kkill, cytotoxic rate by SN-38 [5]: 11.0 1/day/μM and 11.0 (0.0328) 1/day/μM
Vm, central volume of SN-38 [2]: 200 L
kem, elimination rate constant of SN-38 [2]: 2.52 h⁻¹
mk12, rate constant from central to peripheral 1 of SN-38 [2]: 2.6 h⁻¹
mk21, rate constant from peripheral 1 to central of SN-38 [2]: 0.0584 h⁻¹

SMILES: NC(=O)NCCC[C@H](N)C(=O)O [citrulline]
kout, elimination rate constant of plasma citrulline [6]: 8.52 day⁻¹
kout, elimination rate constant of plasma citrulline [7]: 18.6 day⁻¹
plasma citrulline half-life [7]: 39 to 68.4 min
